Values quoted from earlier work as cited in patent publication US11512068B2, “Process for the preparation of crystalline ridinilazole using acid addition salts” (Sandoz AG, priority 2017, dated 2022).

How the values were obtained:
[1] = tested on: Clostridium difficile
[2] = tested on: Clostridium difficile; details: treatment with ridinilazole
[3] = phase 1 trial, oral
[4] = tested on: clostridia; details: phase 1 trial, oral

In the case of `c1cc(-c2nc3ccc(-c4ccc5nc(-c6ccncc6)[nH]c5c4)cc3[nH]2)ccn1` [Ridinilazole, 5,5′bis[2-(4-pyridinyl)-1H-benzimidazole]], the post-antibiotic effect [1] is given as “prolonged post-antibiotic effect”, the toxin production [2] is given as “decreased toxin production” and the tolerability [3] is given as “well tolerated”. For the same molecule, the “selectivity for clostridia over other faecal bacteria” value [4] was “specifically targets clostridia whilst sparing other faecal bacteria”.
